Results taken from ChEMBL document CHEMBL3046627, “Synthesis and in vitro study of antibacterial, antifungal activities of some novel bisquinolines” (2013).
Converted amounts (≈) assume the structure as drawn. The source made the active and inactive calls. No cut-off for these calls is given here.

Legend:
Assay type in all cases: functional
[1] = system: Cryptococcus neoformans; assay: Antifungal activity against Cryptococcus neoformans assessed as growth inhibition after 96 hr by agar dilution method
[2] = system: Micrococcus luteus; assay: Antibacterial activity against Micrococcus luteus ATCC 9341 assessed as growth inhibition at MIC after 24 hr by agar dilution method
[3] = system: Aspergillus niger; assay: Antifungal activity against Aspergillus niger assessed as growth inhibition after 96 hr by agar dilution method
[4] = system: Pseudomonas aeruginosa; assay: Antibacterial activity against Pseudomonas aeruginosa 71 assessed as growth inhibition at MIC after 24 hr by agar dilution method
[5] = system: Candida tropicalis; assay: Antifungal activity against Candida tropicalis assessed as growth inhibition after 96 hr by agar dilution method
[6] = system: Escherichia coli; assay: Antibacterial activity against Escherichia coli 319 assessed as growth inhibition after 24 hr by agar dilution method
[7] = system: Shigella dysenteriae; assay: Antibacterial activity against Shigella dysenteriae 15 assessed as growth inhibition at MIC after 24 hr by agar dilution method
[8] = system: Vibrio cholerae; assay: Antibacterial activity against Vibrio cholerae 759 assessed as growth inhibition at MIC after 24 hr by agar dilution method
[9] = system: Bacillus pumilus; assay: Antibacterial activity against Bacillus pumilus 11778 assessed as growth inhibition after 24 hr by agar dilution method
[10] = system: Micrococcus luteus; assay: Antibacterial activity against Micrococcus luteus ATCC 9341 assessed as growth inhibition after 24 hr by agar dilution method
[11] = system: Staphylococcus aureus; assay: Antibacterial activity against Staphylococcus aureus 29737 assessed as growth inhibition after 24 hr by agar dilution method
[12] = system: Pseudomonas aeruginosa; assay: Antibacterial activity against Pseudomonas aeruginosa 71 assessed as growth inhibition after 24 hr by agar dilution method
[13] = system: Candida albicans; assay: Antifungal activity against Candida albicans assessed as growth inhibition after 96 hr by agar dilution method
[14] = system: Escherichia coli; assay: Antibacterial activity against Escherichia coli 319 assessed as growth inhibition at MIC after 24 hr by agar dilution method
[15] = system: Vibrio cholerae; assay: Antibacterial activity against Vibrio cholerae 759 assessed as growth inhibition after 24 hr by agar dilution method
[16] = system: Klebsiella pneumoniae; assay: Antibacterial activity against Klebsiella pneumoniae J/I/4 assessed as growth inhibition after 24 hr by agar dilution method
[17] = system: Klebsiella pneumoniae; assay: Antibacterial activity against Klebsiella pneumoniae J/I/4 assessed as growth inhibition at MIC after 24 hr by agar dilution method
[18] = system: Bacillus pumilus; assay: Antibacterial activity against Bacillus pumilus 11778 assessed as growth inhibition at MIC after 24 hr by agar dilution method
[19] = system: Staphylococcus aureus; assay: Antibacterial activity against Staphylococcus aureus 29737 assessed as growth inhibition at MIC after 24 hr by agar dilution method
[20] = system: Shigella dysenteriae; assay: Antibacterial activity against Shigella dysenteriae 15 assessed as growth inhibition after 24 hr by agar dilution method
[21] = system: Candida tropicalis; assay: Antifungal activity against Candida tropicalis assessed as growth inhibition at MIC after 96 hr by agar dilution method
[22] = system: Candida albicans; assay: Antifungal activity against Candida albicans assessed as growth inhibition at MIC after 96 hr by agar dilution method
[23] = system: Cryptococcus neoformans; assay: Antifungal activity against Cryptococcus neoformans assessed as growth inhibition at MIC after 96 hr by agar dilution method
[24] = system: Aspergillus niger; assay: Antifungal activity against Aspergillus niger assessed as growth inhibition at MIC after 96 hr by agar dilution method
[25] = Staphylococcus aureus, 29737, 24 h
[26] = Pseudomonas aeruginosa, 71, 24 h

Question: `c1ccc2cc(COc3cccc4cccnc34)c(COc3cccc4cccnc34)cc2c1` was tested. Which MIC [1] did it give?
Answer: inactive

Question: What about the “diameter of the inhibition zone (DIZ)” value [2] of the same compound?
Answer: 6 mm

Question: What about the MIC [3] of the same compound?
Answer: inactive

Question: And the “diameter of the inhibition zone (DIZ)” value [4]?
Answer: 8.2 mm

Question: And the MIC [5]?
Answer: inactive

Question: What about the MIC ([6]; Escherichia coli, 319, 24 h) of the same compound?
Answer: 32 µg/mL (≈ 72.3 µM)

Question: And the “diameter of the inhibition zone (DIZ)” value [7]?
Answer: 6 mm

Question: And the “diameter of the inhibition zone (DIZ)” value [8]?
Answer: 7.1 mm

Question: And the MIC ([9]; Bacillus pumilus, 11778, 24 h)?
Answer: 256 µg/mL (≈ 579 µM)

Question: What about the MIC ([10]; ATCC 9341, 24 h) of the same compound?
Answer: > 500 µg/mL

Question: What about the MIC [11, 25] of the same compound?
Answer: > 500 µg/mL

Question: And the MIC [12, 26]?
Answer: > 500 µg/mL

Question: What about the MIC [13] of the same compound?
Answer: inactive

Question: What about the “diameter of the inhibition zone (DIZ)” value [14] of the same compound?
Answer: 9.7 mm

Question: And the MIC ([15]; Vibrio cholerae, 759, 24 h)?
Answer: > 500 µg/mL

Question: What about the MIC ([16]; J/I/4, 24 h) of the same compound?
Answer: > 500 µg/mL

Question: What about the “diameter of the inhibition zone (DIZ)” value [17] of the same compound?
Answer: 6.4 mm

Question: What about the “diameter of the inhibition zone (DIZ)” value [18] of the same compound?
Answer: 9 mm

Question: What about the “diameter of the inhibition zone (DIZ)” value [19] of the same compound?
Answer: 6 mm

Question: What about the MIC ([20]; Shigella dysenteriae, 15, 24 h) of the same compound?
Answer: > 500 µg/mL

Question: Which results are given for `c1cc(COc2cccc3cccnc23)cc(COc2cccc3cccnc23)c1`?
Answer: MIC [1]: inactive; diameter of the inhibition zone (DIZ) [21]: inactive; MIC [3]: inactive; diameter of the inhibition zone (DIZ) [22]: inactive; MIC [5]: inactive; MIC [6]: inactive; MIC [9]: inactive; MIC [10]: inactive; MIC [11]: inactive; MIC [12]: inactive; MIC [13]: inactive; diameter of the inhibition zone (DIZ) [23]: inactive; MIC [15]: inactive; MIC [16]: inactive; MIC [20]: inactive; diameter of the inhibition zone (DIZ) [24]: inactive

Question: Which MIC [1] does the source give for `c1cnc2c(OCc3nc4ccccc4nc3COc3cccc4cccnc34)cccc2c1` here?
Answer: inactive

Question: What about the MIC [3] of the same compound?
Answer: inactive

Question: And the MIC [5]?
Answer: inactive

Question: And the MIC [6]?
Answer: inactive

Question: What about the MIC [9] of the same compound?
Answer: inactive

Question: And the MIC [10]?
Answer: inactive

Question: And the MIC [11]?
Answer: inactive

Question: And the MIC [12]?
Answer: inactive

Question: And the MIC [13]?
Answer: inactive

Question: What about the MIC [15] of the same compound?
Answer: inactive

Question: And the MIC [16]?
Answer: inactive

Question: What about the MIC [20] of the same compound?
Answer: inactive

Question: With `Clc1ccc(OCc2cccc(COc3ccc(Cl)c4cccnc34)c2)c2ncccc12` as the compound, how does the MIC [1] read?
Answer: inactive

Question: And the “diameter of the inhibition zone (DIZ)” value [21]?
Answer: 7 mm

Question: And the “diameter of the inhibition zone (DIZ)” value [2]?
Answer: 8 mm

Question: And the MIC [3]?
Answer: 1000 µg/mL (≈ 2170 µM)

Question: What about the “diameter of the inhibition zone (DIZ)” value [4] of the same compound?
Answer: 6 mm

Question: What about the “diameter of the inhibition zone (DIZ)” value [22] of the same compound?
Answer: inactive

Question: And the MIC [5]?
Answer: 1000 µg/mL (≈ 2170 µM)

Question: And the MIC ([6]; Escherichia coli, 319, 24 h)?
Answer: > 500 µg/mL

Question: And the “diameter of the inhibition zone (DIZ)” value [7]?
Answer: 8 mm

Question: What about the “diameter of the inhibition zone (DIZ)” value [8] of the same compound?
Answer: 6 mm

Question: And the MIC ([9]; Bacillus pumilus, 11778, 24 h)?
Answer: > 500 µg/mL

Question: What about the MIC ([10]; ATCC 9341, 24 h) of the same compound?
Answer: 64 µg/mL (≈ 139 µM)

Question: And the MIC [11, 25]?
Answer: 128 µg/mL (≈ 277 µM)

Question: What about the MIC [12, 26] of the same compound?
Answer: 256 µg/mL (≈ 555 µM)

Question: And the MIC [13]?
Answer: inactive

Question: What about the “diameter of the inhibition zone (DIZ)” value [14] of the same compound?
Answer: inactive

Question: And the “diameter of the inhibition zone (DIZ)” value [23]?
Answer: inactive

Question: What about the MIC ([15]; Vibrio cholerae, 759, 24 h) of the same compound?
Answer: 256 µg/mL (≈ 555 µM)

Question: And the MIC ([16]; J/I/4, 24 h)?
Answer: 32 µg/mL (≈ 69.4 µM)

Question: What about the “diameter of the inhibition zone (DIZ)” value [17] of the same compound?
Answer: 6 mm

Question: And the “diameter of the inhibition zone (DIZ)” value [18]?
Answer: inactive

Question: What about the “diameter of the inhibition zone (DIZ)” value [19] of the same compound?
Answer: 8 mm

Question: What about the MIC ([20]; Shigella dysenteriae, 15, 24 h) of the same compound?
Answer: 32 µg/mL (≈ 69.4 µM)

Question: And the “diameter of the inhibition zone (DIZ)” value [24]?
Answer: 8 mm

Question: For `Cc1ccc2cccc(OCc3cccc(COc4cccc5ccc(C)nc45)c3)c2n1`, which MIC [1] is on record?
Answer: inactive

Question: What about the “diameter of the inhibition zone (DIZ)” value [21] of the same compound?
Answer: inactive

Question: What about the MIC [3] of the same compound?
Answer: inactive

Question: What about the “diameter of the inhibition zone (DIZ)” value [22] of the same compound?
Answer: inactive

Question: And the MIC [5]?
Answer: inactive

Question: What about the MIC [6] of the same compound?
Answer: inactive

Question: What about the MIC [9] of the same compound?
Answer: inactive

Question: And the MIC [10]?
Answer: inactive

Question: What about the MIC [11] of the same compound?
Answer: inactive

Question: What about the MIC [12] of the same compound?
Answer: inactive

Question: What about the MIC [13] of the same compound?
Answer: inactive

Question: What about the “diameter of the inhibition zone (DIZ)” value [23] of the same compound?
Answer: inactive

Question: And the MIC [15]?
Answer: inactive

Question: And the MIC [16]?
Answer: inactive

Question: And the MIC [20]?
Answer: inactive

Question: What about the “diameter of the inhibition zone (DIZ)” value [24] of the same compound?
Answer: inactive

Question: `OC(Cn1cncn1)(Cn1cncn1)c1ccc(F)cc1F` [FLUCONAZOLE] was tested. Which MIC [1] did it give?
Answer: 8 µg/mL (≈ 26.1 µM)

Question: What about the “diameter of the inhibition zone (DIZ)” value [21] of the same compound?
Answer: 8.5 mm

Question: What about the MIC [3] of the same compound?
Answer: 10 µg/mL (≈ 32.7 µM)

Question: What about the “diameter of the inhibition zone (DIZ)” value [22] of the same compound?
Answer: 10.2 mm

Question: And the MIC [5]?
Answer: 8 µg/mL (≈ 26.1 µM)

Question: And the MIC [13]?
Answer: 4 µg/mL (≈ 13.1 µM)

Question: What about the “diameter of the inhibition zone (DIZ)” value [23] of the same compound?
Answer: 8.5 mm

Question: What about the “diameter of the inhibition zone (DIZ)” value [24] of the same compound?
Answer: 8.6 mm
